Test results from ChEMBL document CHEMBL1201862, “PubChem BioAssay data set” (2004).
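Where inhibition never reached the appropriate level, the endpoint shown equals the highest concentration tested. Otherwise, values were interpolated linearly from a five-concentration, 48-hour dose response in 96-well plates. GI50 is the concentration that inhibits growth by half.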 The source made the active and inactive calls. Cut-off read from the data, not from the text of the source: active = GI50 up to about 1.1 µM and inactive = higher.

Experiments:
Test in all cases: DTP human tumour cell line panel, 48 h
[1] = test system: K562
[2] = test system: OVCAR-5
[3] = test system: HT-29
[4] = test system: CCRF-CEM
[5] = test system: ACHN
[6] = test system: Hs-578T
[7] = test system: OVCAR-8
[8] = test system: HOP-62
[9] = test system: CAKI-1
[10] = test system: MDA-MB-231
[11] = test system: EKVX
[12] = test system: HL-60
[13] = test system: SF-539
[14] = test system: MDA-MB-435
[15] = test system: NCI/ADR-RES
[16] = test system: KM12
[17] = test system: T47D
[18] = test system: M14
[19] = test system: Malme-3M

Row | SMILES | GI50 [1] | GI50 [2] | GI50 [3] | GI50 [4] | GI50 [5] | GI50 [6] | GI50 [7] | GI50 [8] | GI50 [9] | GI50 [10] | GI50 [11] | GI50 [12] | GI50 [13] | GI50 [14] | GI50 [15] | GI50 [16] | GI50 [17] | GI50 [18] | GI50 [19]
1 | CC(C)(C)CC(N)=O | > 100 µM (inactive) | > 100 µM (inactive) | > 100 µM (inactive) | > 100 µM (inactive) | > 100 µM (inactive) | > 100 µM (inactive) | > 100 µM (inactive) | > 100 µM (inactive) | > 100 µM (inactive) | > 100 µM (inactive) | > 100 µM (inactive) | > 100 µM (inactive) | > 100 µM (inactive) | > 100 µM (inactive) | > 100 µM (inactive) | > 100 µM (inactive) | > 100 µM (inactive) | > 100 µM (inactive) | 
2 | OCC1OC(N2CCN(C3OC(CO)C(O)C(O)C3O)CC2)C(O)C(O)C1O (stereo not given) | > 100 µM (inactive) | > 100 µM (inactive) | > 100 µM (inactive) |  | > 100 µM (inactive) | > 100 µM (inactive) | > 100 µM (inactive) | > 100 µM (inactive) | > 100 µM (inactive) | > 100 µM (inactive) | > 100 µM (inactive) |  | > 100 µM (inactive) | > 100 µM (inactive) | > 100 µM (inactive) | > 100 µM (inactive) | > 100 µM (inactive) | > 100 µM (inactive) | > 100 µM (inactive)
3 | CC1=C(C)C(=O)C(C2=CC(=O)c3ccccc3C2=O)=C(C2=CC(=O)c3ccccc3C2=O)C1=O |  | 24.3 µM (inactive) | 0.684 µM (active) |  | 3.27 µM (inactive) | 3.62 µM (inactive) | 3.64 µM (inactive) | 12.4 µM (inactive) | 2.95 µM (inactive) | 4.52 µM (inactive) | 19.3 µM (inactive) | 0.234 µM (active) | 6.35 µM (inactive) | 0.352 µM (active) | 1.68 µM (inactive) | 10.4 µM (inactive) | 6.95 µM (inactive) | 8.49 µM (inactive) | 0.514 µM (active)
4 | CC1=CN(c2ccccc2)S2=C1c1sc3c(c1N2c1ccc(Br)cc1)CCCC3 (stereo not given) | > 100 µM (inactive) | 96.8 µM (inactive) | > 100 µM (inactive) | > 100 µM (inactive) | > 100 µM (inactive) | > 100 µM (inactive) | > 100 µM (inactive) | > 100 µM (inactive) | > 100 µM (inactive) | > 100 µM (inactive) | > 100 µM (inactive) | > 100 µM (inactive) | > 100 µM (inactive) | > 100 µM (inactive) | > 100 µM (inactive) | > 100 µM (inactive) | 91.2 µM (inactive) | > 100 µM (inactive) | 
5 | OCCCCn1cc(Cn2ncc3c(NCc4ccccc4)ncnc32)nn1 | 44.3 µM (inactive) | > 100 µM (inactive) | > 100 µM (inactive) | > 100 µM (inactive) | > 100 µM (inactive) | > 100 µM (inactive) | > 100 µM (inactive) | > 100 µM (inactive) | > 100 µM (inactive) | > 100 µM (inactive) | > 100 µM (inactive) |  | > 100 µM (inactive) | 33.7 µM (inactive) | > 100 µM (inactive) | > 100 µM (inactive) | 66.1 µM (inactive) | > 100 µM (inactive) | > 100 µM (inactive)
6 | O=c1[nH]nc(Cc2ccccc2)n1CCO | > 100 µM (inactive) | > 100 µM (inactive) | > 100 µM (inactive) |  | > 100 µM (inactive) | > 100 µM (inactive) | > 100 µM (inactive) |  | > 100 µM (inactive) | > 100 µM (inactive) | > 100 µM (inactive) |  | > 100 µM (inactive) | > 100 µM (inactive) | > 100 µM (inactive) | > 100 µM (inactive) | > 100 µM (inactive) | > 100 µM (inactive) | > 100 µM (inactive)
7 | CC(C)Nc1n[nH]c(=O)n1C(C)C | > 100 µM (inactive) | > 100 µM (inactive) | > 100 µM (inactive) | > 100 µM (inactive) | > 100 µM (inactive) | 49.9 µM (inactive) | > 100 µM (inactive) | > 100 µM (inactive) | > 100 µM (inactive) | > 100 µM (inactive) | > 100 µM (inactive) | > 100 µM (inactive) | > 100 µM (inactive) | > 100 µM (inactive) | > 100 µM (inactive) | > 100 µM (inactive) | > 100 µM (inactive) | > 100 µM (inactive) | 
8 | OC12C3C4CC5C(C4[C@@H]1Br)C2[C@@](O)(c1c(F)c(F)c(F)c(F)c1F)C53 (stereo not given in full) | 21.4 µM (inactive) | 68.2 µM (inactive) | 27.5 µM (inactive) | 21.7 µM (inactive) | 51.1 µM (inactive) | 22.2 µM (inactive) | 32 µM (inactive) | 35.1 µM (inactive) | 21.1 µM (inactive) | > 100 µM (inactive) | 27.1 µM (inactive) | 38.2 µM (inactive) | 56.4 µM (inactive) | 37.6 µM (inactive) | 27.2 µM (inactive) | 15.7 µM (inactive) | 41.4 µM (inactive) | 37 µM (inactive) | 
